Target: human serotonin transporter (h-SERT) (Homo sapiens (Human), UniProt P31645)
Test: [3H] citalopram binding assay to evaluate human serotonin reuptake inhibitory action (h-SERT binding assay)
Details: h-SERT binding inhibition constant Ki, Test Ex. 1
Protocol: Citalopram Binding Assay to Evaluate Human Serotonin Reuptake Inhibitory Action
In the experiment, human serotonin transporter (h-SERT) was expressed in CHO cells (h-SERT/CHO). The cells were incubated with F12 containing 10% FCS, 500 μg/mL Geneticin and 100 U/mL penicillin-100 μg/mL streptmycin (all manufactured by Sigma Aldrich) in an incubator containing 5% CO2; detached and collected using a SERT buffer [50 mmol/L Tris-HCl comprising 120 mmol/L NaCl and 5 mmol/L KCl (pH=7.4)]; homogenized with a homogenizer manufactured by Teflon (trademark); and then centrifuged (50,000×g, 30 min, 4° C.). The precipitate was suspended again in the appropriate amount of SERT buffer (to give a membrane preparation), and stored at −80° C. until used. The amount of protein in the membrane preparation was assayed by Dye Reagent Concentrate (manufactured by BIO-RAD) using bovine serum albumin (manufactured by Sigma Aldrich) as a standard.
The [^3H] citalopram binding was measured according to the method disclosed in Owens M. J. et al., J. Pharm. […] The glass fiber filter was washed twice with 250 HL of the SERT buffer, placed in a plastic vial containing 4 mL of liquid scintillator (ACS-II, manufactured by Amersham) or Ecoscint A (manufactured by National Diagnostics), and the remaining radioactivity on the filter paper was assayed with a liquid scintillation counter.

With `CNCc1cc(OCc2cc(Cl)ccc2F)n(CC2CCCCO2)n1` (single isomer, unassigned; (+)) [Example 475, (+)-1-{5-[(5-chloro-2-fluorobenzyl)oxy]-1-(tetrahydro-2H-pyran-2-ylmethyl)-1H-pyrazol-3-yl}-N-methylmethanamine] the Ki was 9.2 nM.

Target: T1, human serotonin 2C receptor (h-5-HT2C) (Homo sapiens (Human), UniProt P28335)
Test: [3H] mesulergine binding assay to evaluate affinity for human 5-HT2C receptor
Details: Test Ex. 2, h-5-HT2C/CHO membrane preparation, read-out: 5-HT2C receptor binding inhibition constant Ki
Protocol: Mesulergine Binding Assay to Evaluate Affinity for Human 5-HT2C Receptor
Preparation of the Cells and Membrane Preparations
In the experiment, human serotonin 2C receptor (h-5-HT2C) was expressed in CHO cells (h-5-HT2C/CHO). The cells were incubated with UltraCHO Lipuid (trademark) (manufactured by BioWhitakker) containing 1% FBS, 400 μg/mL Geneticin, 100 U/mL penicillin-100 μg/mL streptomycin (all manufactured by Sigma Aldrich) and 250 μg/mL Zeosin (manufactured by InvivoGen) in an incubator containing 5% CO2; detached and collected using 50 mmol/L Tris-HCl (pH=7.4); homogenized with a homogenizer manufactured by Teflon (trademark); and then centrifuged (48,000×g, 25 min, 4° C.). […]
A solution of 200 μL in total was prepared by mixing 50 μL of [^3H] mesulergine (manufactured by GE Healthcare) diluted with 50 mmol/L Tris-HCl (pH=7.4) (final concentration: about 2 nmol/L), 149 μL of the h-5-HT2C/CHO membrane preparation (protein amount: 20 μg/well), and 1 μL of the test drug dissolved in dimethylsulfoxide. […] The glass fiber filter was washed twice with 250 μL of 50 mmol/L Tris-HCl (pH=7.4), placed in a plastic vial containing 4 mL of liquid scintillator (ACS-II, manufactured by Amersham) or Ecoscint A (manufactured by National Diagnostics), and the remaining radioactivity on the filter paper was assayed with a liquid scintillation counter. […]

T1 sequence (P28335 whole entry, looked up): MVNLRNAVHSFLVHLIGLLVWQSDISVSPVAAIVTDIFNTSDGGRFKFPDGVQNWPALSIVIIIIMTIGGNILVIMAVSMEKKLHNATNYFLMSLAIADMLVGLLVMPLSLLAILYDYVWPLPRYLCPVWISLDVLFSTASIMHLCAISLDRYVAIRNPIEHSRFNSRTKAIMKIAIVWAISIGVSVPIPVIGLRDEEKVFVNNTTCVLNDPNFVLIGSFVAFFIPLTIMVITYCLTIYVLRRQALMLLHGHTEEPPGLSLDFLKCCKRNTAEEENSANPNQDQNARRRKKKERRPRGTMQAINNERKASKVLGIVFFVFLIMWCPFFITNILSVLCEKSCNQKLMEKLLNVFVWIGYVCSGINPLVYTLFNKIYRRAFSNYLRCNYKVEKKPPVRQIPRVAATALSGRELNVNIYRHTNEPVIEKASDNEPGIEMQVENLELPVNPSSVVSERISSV

For `CNCc1cc(OCc2cc(Cl)ccc2F)n(CC2CCCCO2)n1` (single isomer, unassigned; (+)) [Example 475, (+)-1-{5-[(5-chloro-2-fluorobenzyl)oxy]-1-(tetrahydro-2H-pyran-2-ylmethyl)-1H-pyrazol-3-yl}-N-methylmethanamine], the Ki was 19 nM.

Target: T1, human serotonin 2C receptor (h-5-HT2C)
Test: 5-HT2C receptor agonistic action assay (FLIPR Calcium 4, h-5-HT2C/CHO cells; agonistic / inverse agonistic action)
Type: cell-based
Details: not given
Protocol: 3-1. The Cells and Inoculation Thereof
In the experiment, human serotonin 2C receptor (h-5-HT2C) was expressed in CHO cells (h-5-HT2C/CHO). The cells were incubated with UltraCHO Lipuid (trademark) (manufactured by BioWhitakker) containing 1% FBS, 400 μg/mL Geneticin, 100 U/mL penicillin-100 μg/mL streptomycin (all manufactured by Sigma Aldrich) and 250 μg/mL Zeosin (manufactured by InvivoGen) in an incubator containing 5% CO2. On the day before using the cells, they were detached and collected using 250 μg/mL Trypsin solution (manufactured by Nacalai Tesque), then inoculated in a 96 well flat clear bottom black polystyrene TC-treated microplates (manufactured by Corning) at 40000 cells/well/60 μL in an incubator containing 5% CO2 for 16 hours to 24 hours.
3-2. 5-HT2C Receptor Agonistic Action Assay
The 5-HT2C receptor agonistic action was evaluated with FLIPR Calcium 4 Assay kit (manufactured by Molecular Devices). In specific, to the cells inoculated in the plate were added Component A of FLIPR Calcium 4 Assay kit dissolved in 100 mL of HHBP buffer (1×Hanks buffer, 20 mmol/L HEPES, both manufactured by Gibco) at an amount of 40 μL/well, and the cells were incubated in an incubator containing 5% CO2 for 1 hour. Then, the cells were set in FLIPR TETRA (trademark) (manufactured by Molecular Devices), to the cells was added the test material diluted with HHBP buffer, 2.5 mmol/L Probenecid (manufactured by Sigma) (concentration after dilution: 10 μmol/L) at an amount of 20 μL/well, and the fluorescence was measured. Then, in order to evaluate the antagonistic action of the test material, 20 μL/well of 5-HT solution (manufactured by Sigma, final concentration: 0.1 nmol/L) was further added to the cells, and the fluorescence was measured.
The 5-HT2C receptor agonistic action of each test material was calculated as a rate of fluorescence enhancement wherein 100% was defined as a value when the cells were given 10 μmol/L 5-HT. Furthermore, the 5-HT2C receptor inverse agonistic action was calculated as a rate of fluorescence decay wherein −100% was defined as a value when the cells were given 10 μmol/L SB206553 (manufactured by Sigma Aldrich). A lower value of the 5-HT2C receptor agonistic action of the test material means that the material has a higher antagonistic action. In particular, when the value of the 5-HT2C receptor agonistic action of the test material is below 0%, the material has an inverse agonistic action for 5-HT2C receptor.

First: CNCc1cc(OCc2ccccc2)n(C(CO)C2CCCCC2)n1.Cl (stereo not drawn) [Example 328, 2-{5-(Benzyloxy)-3-[(methylamino)methyl]-1H-pyrazol-1-yl}-2-cyclohexyl-ethanol Hydrochloride]
Second: CNCc1cc(OCc2cc(Cl)ccc2F)n(CCC2(O)CCCC2)n1.Cl [Example 435, 1-(2-{5-[(5-Chloro-2-fluorobenzyl)oxy]-3-[(methylamino)-methyl]-1H-pyrazol-1-yl}ethyl)cyclopentanol Hydrochloride]
The “5-HT2C receptor agonistic action” value of the first is higher: −116% for the first, −125% for the second.

Compared with `CCNCc1cc(OCc2cc(F)ccc2F)n(CC2CCCCC2)n1` [Example 344, N-({1-(Cyclohexylmethyl)-5-[(2,5-difluorobenzyl)oxy]-1H-pyrazol-3-yl}methyl)ethanamine], `CNCc1cc(OCc2cc(F)ccc2F)n(CCC(C)(C)F)n1.Cl` [Example 481, 1-{5-[(2,5-Difluorobenzyl)oxy]-1-(3-fluoro-3-methylbutyl)-1H-pyrazol-3-yl}-N-methylmethanamine Hydrochloride] is lower in “5-HT2C receptor agonistic action” value: −82% for the first, −109% for the second.

Compared with `CNCc1cc(OCc2ccccc2)n(CC2CCCCC2)n1` [Example 5, 1-[5-(Benzyloxy)-1-(cyclohexylmethyl)-1H-pyrazol-3-yl]-N-methylmethanamine], `CNCc1cc(OCc2cccc(OC)c2)n(CC2CCCCC2)n1` [Compound 42] is lower in “5-HT2C receptor agonistic action” value: −91% for the first, −106% for the second.

Going from `CNCc1cc(OCc2ccccc2)n(CCCc2ccccc2)n1` [Example 3, 1-[5-(Benzyloxy)-1-(3-phenylpropyl)-1H-pyrazol-3-yl]-N-methylmethanamine] to `CNCc1cc(OCc2cc(Cl)ccc2F)n(CCC(C)OC)n1` (stereo not drawn) [Compound 405], the “5-HT2C receptor agonistic action” value rises from −91% to −90%.

Compared with `CNCc1cc(OCc2ccc(F)cc2F)n(CC2CCCC2)n1` [Example 144, 1-{1-(cyclopentylmethyl)-5-[(2,4-difluorobenzyl)oxy]-1H-pyrazol-3-yl}-N-methylmethanamine], `CNCc1cc(OCc2cc(Cl)ccc2F)n(CC2CCCCO2)n1` (single isomer, unassigned; (+)) [Example 475, (+)-1-{5-[(5-chloro-2-fluorobenzyl)oxy]-1-(tetrahydro-2H-pyran-2-ylmethyl)-1H-pyrazol-3-yl}-N-methylmethanamine] is higher in “5-HT2C receptor agonistic action” value: −127% for the first, −95% for the second.

Going from `CNCc1cc(OC(C)c2cccc(Cl)c2)n(CC2CCCCC2)n1.Cl` (stereo not drawn) [Example 350, 1-{5-[1-(3-Chlorophenyl)ethoxy]-1-(cyclohexylmethyl)-1H-pyrazol-3-yl}-N-methylmethanamine Hydrochloride] to `CNCc1cc(OCc2ccccc2F)n(Cc2ccc(F)cc2)n1` [Example 218, 1-{1-(4-fluorobenzyl)-5-[(2-fluorobenzyl)oxy]-1H-pyrazol-3-yl}-N-methylmethanamine], the “5-HT2C receptor agonistic action” value falls from −92% to −111%.

Going from “N-Benzyl-1-(cyclohexylmethyl)-3-[(methyl]-1H-pyrazol-5-amine Dihydrochloride [Example 357]” to `CNCc1cc(OCc2ccccc2)n(C(CF)C2CCCCC2)n1.Cl` (stereo not drawn) [Example 330, 1-[5-(Benzyloxy)-1-(1-cyclohexyl-2-fluoroethyl)-1H-pyrazol-3-yl]-N-methylmethanamine Hydrochloride], the “5-HT2C receptor agonistic action” value rises from −120% to −82%.

Going from `CNCc1cc(OCc2cc(F)c(F)cc2F)n(CCC2CC2)n1` [Example 426] to `CNCc1cc(OCc2cc(Cl)ccc2F)n(CCC(C)(C)F)n1.Cl` [Example 482, 1-{5-[(5-Chloro-2-fluorobenzyl)oxy]-1-(3-fluoro-3-methylbutyl)-1H-pyrazol-3-yl}-N-methylmethanamine Hydrochloride], the “5-HT2C receptor agonistic action” value falls from −99% to −116%.

First: CNCc1cc(OC(F)(F)c2ccccc2)n(CC2CCCCC2)n1.Cl [Example 349, 1-{1-(Cyclohexylmethyl)-5-[difluoro(phenyl)methoxy]-1H-pyrazol-3-yl}-N-methylmethanamine Hydrochloride]
Second: CNCc1cc(SCc2ccccc2)n(Cc2ccccc2)n1.Cl [Example 355, 1-[1-Benzyl-5-(benzylsulfanyl)-1H-pyrazol-3-yl]-N-methylmethanamine Hydrochloride]
The “5-HT2C receptor agonistic action” value of the first is lower: −82% for the first, −72% for the second.

Compared with `CNCc1cc(OCc2ccccc2)n(C(C)C2CCCC2)n1.Cl` (stereo not drawn) [Example 288, 1-[5-(Benzyloxy)-1-(1-cyclopentylethyl)-1H-pyrazol-3-yl]-N-methylmethanamine Hydrochloride], `CNCc1cc(OCc2cc(Cl)ccc2F)n(CC2(OC)CCCCC2)n1` [Compound 434] is lower in “5-HT2C receptor agonistic action” value: −80% for the first, −87% for the second.

First: CNCc1cc(OCc2ccc(F)cc2C)n(CC2CCCCO2)n1 (stereo not drawn) [Compound 108]
Second: CNCc1cc(OCc2cccc(Cl)c2)n(CC2CCc3ccccc3O2)n1.Cl (stereo not drawn) [Example 341, 1-{5-[(3-Chlorobenzyl)oxy]-1-(3,4-dihydro-2H-chromen-2-yl-methyl)-1H-pyrazol-3-yl}-N-methylmethanamine Hydrochloride]
The “5-HT2C receptor agonistic action” value of the first is lower: −117% for the first, −71% for the second.

First: Cl.NCc1cc(OCc2cc(F)ccc2F)n(CC2CCCC2)n1 [Example 347, 1-{1-(Cyclopentylmethyl)-5-[(2,5-difluorobenzyl)oxy]-1H-pyrazol-3-yl}methanamine Hydrochloride]
Second: CNCc1cc(OCc2cc(Cl)ccc2F)n(CCC(C)(C)OC)n1 [Example 275, 1-{5-[(5-chloro-2-fluorobenzyl)oxy]-1-(3-methoxy-3-methylbutyl)-1H-pyrazol-3-yl}-N-methylmethanamine]
The “5-HT2C receptor agonistic action” value of the first is lower: −114% for the first, −88% for the second.

Same assay, conditions: Test Ex. 3; test material 10 μmol/L; 100% = 10 μmol/L 5-HT, −100% = 10 μmol/L SB206553; below 0% = inverse agonistic action

First: CNCc1cc(OCc2cc(Cl)ccc2F)n(CC(C)(C)C)n1 [Example 259, 1-{5-[(5-chloro-2-fluorobenzyl)oxy]-1-(2,2-dimethylpropyl)-1H-pyrazol-3-yl}-N-methylmethanamine]
Second: CNCc1cc(OCc2cc(Cl)ccc2F)n(CC(C)C)n1 [Example 256, 1-{5-[(5-chloro-2-fluorobenzyl)oxy]-1-(2-methylpropyl)-1H-pyrazol-3-yl}-N-methylmethanamine]
The “5-HT2C receptor agonistic action” value of the first is lower: −119% for the first, −97% for the second.

`CCC(CC)n1nc(CNC)cc1OCc1ccc(F)cc1Cl` [Example 253] and `CNCc1cc(OCc2cc(F)ccc2F)n(CCC(C)(C)C)n1` [Example 266, 1-{5-[(2,5-difluorobenzyl)oxy]-1-(3,3-dimethylbutyl)-1H-pyrazol-3-yl}-N-methylmethanamine] are the same in “5-HT2C receptor agonistic action” value: −86% for the first, −86% for the second.

`CNC(C)c1cc(OCc2cc(F)ccc2F)n(CCC2CCCC2)n1` (stereo not drawn) [Example 315, 1-{1-(2-cyclopentylethyl)-5-[(2,5-difluorobenzyl)oxy]-1H-pyrazol-3-yl}-N-methylethanamine] was tested, and the “5-HT2C receptor agonistic action” value was −84%.
In the case of `CNC(C)c1cc(OCc2cc(F)ccc2F)n(CCC2CCCC2)n1` (single isomer, unassigned; (+)) [Example 477, (+)-1-{1-(2-cyclopentylethyl)-5-[(2,5-difluorobenzyl)-oxy]-1H-pyrazol-3-yl}-N-methylethanamine], the “5-HT2C receptor agonistic action” value is reported as −94%.
`CNC(C)c1cc(OCc2cc(F)ccc2F)n(CCC2CCCC2)n1` (single isomer, unassigned; (-)) [Example 476, (−)-1-{1-(2-cyclopentylethyl)-5-[(2,5-difluorobenzyl)-oxy]-1H-pyrazol-3-yl}-N-methylethanamine] was tested, and the “5-HT2C receptor agonistic action” value was −72%.

— patent publication US11312688B2, “Pyrazole compound” (Sumitomo Dainippon Pharma Co., Ltd., priority 2011, dated 2022)
